According to patent US7759373B2, “Large conductance calcium-activated K channel opener” (Mitsubishi Tanabe Pharma Corporation, priority 2001, dated 2010):

How the values were obtained:
[1] = tested on: isolated rabbit urinary bladder; test: Relaxation effect on potassium-induced contraction of isolated rabbit urinary bladder; type: cell-based; settings: Oryctolagus cuniculus; 50% relaxation concentration; high-K+ (30 mM) pre-contracted rabbit bladder strips; relaxation as percentage of the maximum produced by 0.1 mM papaverine; read-out: EC50 value range
Protocol: Relaxation effect on potassium-induced contraction of isolated rabbit urinary bladder
Urinary bladder was isolated from Male NZW rabbits (2.0-3.5 kg) and immersed in ice-cold Krebs-bicarbonate solution (in mM: 118 NaCl, 4.7 KCl, 1.2, 2.5 CaCl2, MgSO4, 1.2 KH2PO4, 11 glucose, 25 NaHCO3). The urinary bladder was cut into longitudinal strips (5 mm length, 3-4 mm width) after mucosal layer was removed. Preparations were mounted in organ baths containing 10 ml of Krebs solution maintained at 37° C. and gassed with 95% O2/5% CO2. Accordingly, preparations were stretched with an initial tension of 2.0±1.0 g, and changes in isometric tension were measured by force-displacement transducer. The preparations were pre-contracted by changing organ-bath solution into high-K^+ (30 mM) Krebs solution (in mM: 92.7 NaCl, 30 KCl, 1.2, 2.5 CaCl2, MgSO4, 1.2 KH2PO4, 11 glucose, 25 NaHCO3).
After stable tension was obtained, compounds were added into organ baths cumulatively (10^−8M-10^−4M). The effects of compounds were expressed as a percentage of the maximum relaxation produced by 0.1 mM papaverine. 50% relaxation concentration (EC50) was calculated and EC50 value range (μM) of the compounds of the present invention was shown in the following Table 64 with a rank of A, B or C. These ranges are as mentioned below. 3≧C≧1≧B≧0.5≧A

[2] = tested on: rhythmic bladder contractions induced by substance P; test: Inhibitory effect on the rhythmic bladder contractions induced by substance P in anesthetized rats; type: in vivo, rat; settings: time during which frequency of rhythmic contraction was completely inhibited, 0.25 mg/kg of the compound, substance P infusion
Summary of the method: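 Value is duration (min) of complete inhibition of bladder contractions, ranked A/B/C at 20 and 10 min cut-offs. Intravenous dosing (0.5% Tween 80 saline) in female SD rats under urethane, bladder saline-filled and contractions maintained by substance P infusion, 0.33 μg/kg/min.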

| EC50 [1] [nM] | SMILES | 100% inhibition time range [2] |
| --- | --- | --- |
| 500 to 1000 | Cc1cc(-c2nc(CC(=O)O)c(-c3ccc(Cl)s3)o2)on1 [Preparation Example 278] | B (A≧20>B≧10>C (minute)) |
| ≤ 500 | COc1ccc(-c2nc(CC(=O)O)c(-c3ccc(Cl)s3)o2)cc1Cl [Preparation Example 280] | C (A≧20>B≧10>C (minute)) |
| 500 to 1000 | O=C(O)Cc1nc(-c2ccc3c(c2)CCO3)oc1-c1ccc(Cl)s1 [Preparation Example 282] | B (A≧20>B≧10>C (minute)) |
| ≤ 500 | O=C(O)Cc1nc(-c2ccc3c(c2)OCCO3)oc1-c1ccc(Cl)s1 [Preparation Example 283] | C (A≧20>B≧10>C (minute)) |
| 1000 to 3000 | O=C(O)Cc1nc(-c2ccc3ncccc3c2)oc1-c1ccc(Cl)s1 [Preparation Example 284] | B (A≧20>B≧10>C (minute)) |
| 1000 to 3000 | O=C(O)Cc1nc(-c2ccc(F)cc2)oc1-c1ccc2occc2c1 [Preparation Example 285] | B (A≧20>B≧10>C (minute)) |
| ≤ 500 | O=C(O)Cc1nc(-c2ccc3occc3c2)oc1-c1csc(Cl)c1 [Preparation Example 287] | B (A≧20>B≧10>C (minute)) |
| ≤ 500 | O=C(O)Cc1nc(-c2ccc3occc3c2)oc1-c1cc(Cl)cs1 [Preparation Example 288] | C (A≧20>B≧10>C (minute)) |
| 1000 to 3000 | Cl.N#CCCc1[nH]c(-c2ccc(F)cc2)nc1-c1ccccc1O [Preparation Example 350, 5-(2-cyanoethyl)-2-(4-fluorophenyl)-4-(2-hydroxyphenyl)-imidazole hydrochloride] | B (A≧20>B≧10>C (minute)) |
| 1000 to 3000 | CN(C)c1ncc(-c2nc(CC(=O)O)c(-c3ccc(Cl)s3)o2)cn1 [Preparation Example 362] | A (A≧20>B≧10>C (minute)) |
| 1000 to 3000 | CCN(C)c1ncc(-c2nc(CC(=O)O)c(-c3ccc(Cl)s3)o2)cn1 [Preparation Example 363] | C (A≧20>B≧10>C (minute)) |
| 1000 to 3000 | CN(C)c1ncc(-c2nc(CC(=O)O)c(-c3ccc(Cl)c(S)c3)o2)cn1 [Preparation Example 364] | B (A≧20>B≧10>C (minute)) |
| 1000 to 3000 | CSc1ccc(-c2nc(CC(=O)[O-])c(-c3ccsc3)o2)cn1.[Na+] [Preparation Example 365, 2-(6-methylthiopyridin-3-yl)-5-(3-thienyl)oxazol-4-yl acetic acid sodium salt] | B (A≧20>B≧10>C (minute)) |
| ≤ 500 | CSc1ccc(-c2nc(CC(=O)[O-])c(-c3cccs3)o2)cn1.[Na+] [Preparation Example 366, 2-(6-methylthiopyridin-3-yl)-5-(2-thienyl)oxazol-4-yl acetic acid sodium salt] | C (A≧20>B≧10>C (minute)) |
| 500 to 1000 | CCOc1ccc(-c2nc(CC(=O)[O-])c(-c3ccc(Cl)s3)o2)cn1.[Na+] [Preparation Example 367, 2-(6-ethoxypyridin-3-yl)-5-(5-chlorothiophen-2-yl)oxazol-4-yl acetic acid sodium salt] | A (A≧20>B≧10>C (minute)) |
| 1000 to 3000 | CONC(=O)Cc1nc(-c2ccc(F)cc2)oc1-c1ccsc1 [Preparation Example 373, N-methoxy-[2-(4-fluorophenyl)-5-(3-thienyl)oxazol-4-yl]acetamide] | C (A≧20>B≧10>C (minute)) |
| 1000 to 3000 | CS(=O)(=O)NCCc1nc(-c2ccc(F)cc2)oc1-c1ccsc1.[Na] [Preparation Example 378, 2-(4-fluoro-phenyl)-4-methanesulfonylaminoethyl-5-(3-thienyl)oxazole sodium salt] | C (A≧20>B≧10>C (minute)) |
| 1000 to 3000 | CN(C)c1ccc(-c2nc(CC(=O)O)c(-c3ccc(Cl)s3)o2)cc1 [Preparation Example 441] | B (A≧20>B≧10>C (minute)) |
| 500 to 1000 | CN1CCc2cc(-c3nc(CC(=O)O)c(-c4ccc(Cl)s4)o3)ccc21 [Preparation Example 453] | C (A≧20>B≧10>C (minute)) |
| 1000 to 3000 | O=C(O)Cc1nc(-c2cc3ccccc3s2)oc1-c1ccc(Cl)cc1 [Preparation Example 454] | A (A≧20>B≧10>C (minute)) |
| ≤ 500 | Cc1ccc(-c2nc(CC(=O)O)c(-c3ccc(Cl)s3)o2)s1 [Preparation Example 458] | B (A≧20>B≧10>C (minute)) |
| 1000 to 3000 | Cc1nc2cc(-c3nc(CC(=O)O)c(-c4ccc(Cl)s4)o3)ccc2s1 [Preparation Example 459] | C (A≧20>B≧10>C (minute)) |
| 1000 to 3000 | COCc1ccc(-c2nc(CC(=O)O)c(-c3ccc(Cl)s3)o2)cn1 [Preparation Example 464] | C (A≧20>B≧10>C (minute)) |
| 1000 to 3000 | Cn1ccc2cc(-c3nc(CC(=O)O)c(-c4ccc(Cl)s4)o3)ccc21 [Preparation Example 469] | B (A≧20>B≧10>C (minute)) |
| ≤ 500 | O=C(O)Cc1nc(-c2cc3c(s2)CCC3)oc1-c1ccc(Cl)s1 [Preparation Example 479] | C (A≧20>B≧10>C (minute)) |

Continued, molecule first:

| SMILES | EC50 [1] [nM] | 100% inhibition time range [2] |
| --- | --- | --- |
| O=C(O)Cc1nc(-c2ccccc2)oc1-c1ccc(Cl)s1 [Preparation Example 279] | ≤ 500 | C (A≧20>B≧10>C (minute)) |
| CSc1ccc(-c2nc(CC(=O)O)c(-c3ccc(Cl)s3)o2)cc1 [Preparation Example 281] | ≤ 500 | C (A≧20>B≧10>C (minute)) |
| O=C(O)Cc1nc(-c2ccc(F)cc2)oc1-c1csc(Cl)c1 [Preparation Example 286] | ≤ 500 | C (A≧20>B≧10>C (minute)) |
| CNC(=O)Cc1nc(-c2ccc(F)cc2)oc1-c1ccsc1 [Preparation Example 374] | 1000 to 3000 | C (A≧20>B≧10>C (minute)) |
| COc1ccc(-c2nc(CC(=O)O)c(-c3cccs3)o2)cc1F [Preparation Example 431] | 500 to 1000 | B (A≧20>B≧10>C (minute)) |
| Cc1cccc(-c2nc(CC(=O)O)c(-c3cccs3)o2)c1 [Preparation Example 432] | ≤ 500 | C (A≧20>B≧10>C (minute)) |
| O=C(O)Cc1nc(-c2ccc3ccccc3n2)oc1-c1ccc(Cl)s1 [Preparation Example 434] | 500 to 1000 | B (A≧20>B≧10>C (minute)) |
| O=C(O)Cc1nc(-c2cc3ccccc3o2)oc1-c1ccc(Cl)s1 [Preparation Example 435] | 500 to 1000 | B (A≧20>B≧10>C (minute)) |
| O=C(O)Cc1nc(-c2cc3ccccc3s2)oc1-c1ccsc1 [Preparation Example 437] | ≤ 500 | B (A≧20>B≧10>C (minute)) |
| COc1ccc(-c2nc(CC(=O)O)c(-c3ccsc3)o2)cc1C [Preparation Example 438] | 1000 to 3000 | C (A≧20>B≧10>C (minute)) |
| O=C(O)Cc1nc(-c2cnc3occc3c2)oc1-c1ccc(Cl)s1 [Preparation Example 444] | 1000 to 3000 | B (A≧20>B≧10>C (minute)) |
| CSc1ncc(-c2nc(CC(=O)O)c(-c3ccc(Cl)s3)o2)cn1 [Preparation Example 445] | 1000 to 3000 | A (A≧20>B≧10>C (minute)) |
| O=C(O)Cc1nc(-c2nc3ccccc3s2)oc1-c1ccc(Cl)s1 [Preparation Example 446] | ≤ 500 | C (A≧20>B≧10>C (minute)) |
| O=C(O)Cc1nc(-c2cc3ccc(F)cc3s2)oc1-c1ccc(Cl)s1 [Preparation Example 451] | 1000 to 3000 | B (A≧20>B≧10>C (minute)) |
| Cc1ccc(-c2nc(CC(=O)O)c(-c3ccc(Cl)s3)o2)cn1 [Preparation Example 452] | ≤ 500 | B (A≧20>B≧10>C (minute)) |
| CSc1ccc(-c2nc(CC(=O)O)c(-c3ccc(Cl)cc3)o2)cc1 [Preparation Example 455] | 1000 to 3000 | B (A≧20>B≧10>C (minute)) |
| CSc1ncc(-c2nc(CC(=O)O)c(-c3ccc(Cl)c(F)c3)o2)cn1 [Preparation Example 462] | 500 to 1000 | C (A≧20>B≧10>C (minute)) |
| CN(C)c1ncc(-c2nc(CC(=O)O)c(-c3ccc(Cl)cc3)o2)cn1 [Preparation Example 473] | 500 to 1000 | A (A≧20>B≧10>C (minute)) |
| Cc1csc(-c2nc(CC(=O)O)c(-c3ccc(Cl)s3)o2)c1 [Preparation Example 478] | ≤ 500 | B (A≧20>B≧10>C (minute)) |
